Measurements: ChEMBL document CHEMBL1141514, “QSAR studies on CCR2 antagonists with chiral sensitive hologram descriptors” (Bioorg Med Chem Lett, 2008)
pIC50: −log10 of the molar value.

What follows are molecules tested against C-C chemokine receptor type 2 (Homo sapiens, UniProt P41597) (assay: Antagonist activity at human CCR2b receptor). Conditions: read-out: IC50.
Type: functional

Chain of C-C chemokine receptor type 2 (P41597 whole entry): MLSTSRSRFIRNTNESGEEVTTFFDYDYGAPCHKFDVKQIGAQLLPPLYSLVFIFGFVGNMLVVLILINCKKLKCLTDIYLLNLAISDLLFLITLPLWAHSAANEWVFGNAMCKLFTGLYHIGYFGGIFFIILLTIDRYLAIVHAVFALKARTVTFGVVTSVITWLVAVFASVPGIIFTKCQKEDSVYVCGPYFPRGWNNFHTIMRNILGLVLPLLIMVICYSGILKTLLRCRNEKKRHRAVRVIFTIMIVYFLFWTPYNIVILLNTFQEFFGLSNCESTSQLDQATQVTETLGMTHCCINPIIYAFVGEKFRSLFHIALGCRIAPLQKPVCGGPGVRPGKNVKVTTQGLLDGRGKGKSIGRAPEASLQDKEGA

| pIC50 | SMILES |
| --- | --- |
| 7.80 | CCC[C@]1(C(=O)NCc2cc(C(F)(F)F)cc(C(F)(F)F)c2)CC[C@@H](N2CC[C@]3(C=Cc4ccccc43)[C@@H](C)C2)C1 |
| 8.40 | C[C@H]1CN([C@@H]2CC[C@](C)(C(=O)NCc3cc(F)cc(C(F)(F)F)c3)C2)CC[C@]12C=Cc1ccccc12 |
| 8.12 | CC(C)[C@]1(C(=O)NCc2cc(C(F)(F)F)cc(C(F)(F)F)c2)CC[C@@H](N2CC[C@]3(C=Cc4ccccc43)[C@@H](C)C2)C1 |
| 8.10 | CC(C)C[C@]1(C(=O)NCc2cc(C(F)(F)F)cc(C(F)(F)F)c2)CC[C@@H](N2CC[C@]3(C=Cc4ccccc43)[C@@H](C)C2)C1 |
| 8.46 | CSC[C@]1(C(=O)NCc2cc(F)cc(C(F)(F)F)c2)CC[C@@H](N2CC[C@]3(C=Cc4ccccc43)[C@@H](C)C2)C1 |
| 6.64 | Nc1nc([C@@H](CCN2CCC(c3ccccc3)CC2)C(=O)NCc2cc(C(F)(F)F)cc(C(F)(F)F)c2)cs1 |
| 6.19 | C=CCC(CCN1CCC(c2ccccc2)CC1)C(=O)NCc1cc(C(F)(F)F)cc(C(F)(F)F)c1 (configuration not stated) |
| 7.72 | C[C@H]1CN([C@@H]2CC[C@](CC3CCC3)(C(=O)NCc3cc(C(F)(F)F)cc(C(F)(F)F)c3)C2)CC[C@]12C=Cc1ccccc12 |
| 6.69 | CC(C)C(CCN1CCC2(C=Cc3ccccc32)CC1)C(=O)NCc1cc(C(F)(F)F)cc(C(F)(F)F)c1 (configuration not stated) |
| 6.71 | C=CCC(CCN1CCC2(C=Cc3ccccc32)CC1)C(=O)NCc1cc(C(F)(F)F)cc(C(F)(F)F)c1 (configuration not stated) |
| 8.51 | CC(C)[C@]1(C(=O)NCc2cc(F)cc(C(F)(F)F)c2)CC[C@@H](N2CC[C@]3(C=Cc4ccccc43)[C@@H](C)C2)C1 |
| 8.72 | C[C@H]1CN([C@@H]2CC[C@@](C(=O)NCc3cc(F)cc(C(F)(F)F)c3)(C3CC3)C2)CC[C@]12C=Cc1ccccc12 |
| 7.55 | CS[C@]1(C(=O)NCc2cc(C(F)(F)F)cc(C(F)(F)F)c2)CC[C@@H](N2CC[C@]3(C=Cc4ccccc43)[C@@H](C)C2)C1 |
| 6.55 | O=C(NCc1cc(C(F)(F)F)cc(C(F)(F)F)c1)C(CCN1CCC(c2ccc(F)cc2)CC1)C1CC1 (configuration not stated) |
| 6.55 | O=C(NCc1cc(C(F)(F)F)cc(C(F)(F)F)c1)C(CCN1CCC(c2ccccc2)CC1)C1CC1 (configuration not stated) |
| 6.90 | CCCC(CCN1CCC(c2ccccc2)CC1)C(=O)NCc1cc(C(F)(F)F)cc(C(F)(F)F)c1 (configuration not stated) |
| 7.89 | CSC[C@]1(C(=O)NCc2cc(C(F)(F)F)cc(C(F)(F)F)c2)CC[C@@H](N2CC[C@]3(C=Cc4ccccc43)[C@@H](C)C2)C1 |
| 7.17 | CS[C@]1(C(=O)NCc2cc(F)cc(C(F)(F)F)c2)CC[C@@H](N2CC[C@]3(C=Cc4ccccc43)[C@@H](C)C2)C1 |
| 8.05 | C[C@H]1CN([C@@H]2CC[C@](C)(C(=O)NCc3cc(C(F)(F)F)cc(C(F)(F)F)c3)C2)CC[C@]12C=Cc1ccccc12 |
| 7.70 | C[C@H]1CN([C@@H]2CC[C@H](C(=O)NCc3cc(C(F)(F)F)cc(C(F)(F)F)c3)C2)CC[C@]12C=Cc1ccccc12 |
| 8.41 | CC(C)C[C@]1(C(=O)NCc2cc(F)cc(C(F)(F)F)c2)CC[C@@H](N2CC[C@]3(C=Cc4ccccc43)[C@@H](C)C2)C1 |

| SMILES | pIC50 |
| --- | --- |
| C[C@H]1CN(CCC(C(=O)NCc2cc(C(F)(F)F)cc(C(F)(F)F)c2)C2CC2)CC[C@@]12C=Cc1ccccc12 (some centres not stated) | 7.85 |
| C[C@H]1CN(CCC(C(=O)NCc2cc(C(F)(F)F)cc(C(F)(F)F)c2)C2CCC2)CC[C@@]12C=Cc1ccccc12 (some centres not stated) | 7.55 |
| C[C@H]1CN(CCC(CC2CC2)C(=O)NCc2cc(C(F)(F)F)cc(C(F)(F)F)c2)CC[C@@]12C=Cc1ccccc12 (some centres not stated) | 7.60 |
| O=C(NCc1cc(C(F)(F)F)cc(C(F)(F)F)c1)C(CCN1CCC2(C=Cc3ccccc32)CC1)C1CC1 (configuration not stated) | 7.01 |
| CC(CCN1CCC2(C=Cc3ccccc32)CC1)C(=O)NCc1cc(C(F)(F)F)cc(C(F)(F)F)c1 (configuration not stated) | 6.64 |

Same assay, conditions: read-out: Log IC50 (converted)

| IC50 [µM] | SMILES |
| --- | --- |
| 0.832 | O=C(NCc1cc(C(F)(F)F)cc(C(F)(F)F)c1)[C@@H](NCCN1CCC(c2ccccc2)CC1)c1ccccc1 |
